pEC50: −log10 of the molar value.
Columns and labels:
[1] = system: P. falciparum; assay: EC50 listed in S2 Table Metabolomics (used to set the concentration tested); format: cell-based; conditions: Plasmodium falciparum; EC50 used for Factor_XEC50 in metabolomics; read-out: EC50_nM
[2] = system: P. falciparum 3D7 trophozoites; assay: Metabolomic fingerprint profiling LC-MS; format: cell-based, Plasmodium falciparum; set-up: UDP-D-glucose / ADP-D-glucose: unit not given here; conditions: for Acetyllysine / N-acetyl-L-ornithine / N-carbamoyl-L-aspartate / NADPH / dAMP / dCMP / dTDP / dTMP / dTTP / dihydroorotate / orotate / DLH / DLS/SDL/SID / PD / PEE / PVNF / 3-phosphoglycerate / ADP-D-glucose / ATP / CDP / D-sedoheptulose-1/7-phosphate / FAD / GMP / NAD+ / NADP+ / Octoluse Bisphosphate / Pyroglutamic acid / UDP-D-glucose / UDP-D-glucuronate / UDP-N-acetyl-glucosamine / UDP / UMP / UTP / a-ketoglutarate / citrate/isocitrate / cytidine / dATP / dGMP/AMP / fumarate / glucose-1/6-phosphate / glycerate / guanine / guanosine / hypoxanthine / indole / inosine / nicotinate / ornithine / phosphoenolpyruvate / pyruvate / ribose-phosphate / sarcosine/alanine / sn-glycerol-3-phosphate / succinate/methylmalonic acid / uridine / xanthosine: S2 Table Metabolomics; for Acetyllysine: metabolite Acetyllysine; for N-acetyl-L-ornithine: metabolite N-acetyl-L-ornithine; for N-carbamoyl-L-aspartate: metabolite N-carbamoyl-L-aspartate; for NADPH: metabolite NADPH; for dAMP: metabolite dAMP; for dCMP: metabolite dCMP; for dTDP: metabolite dTDP; for dTMP: metabolite dTMP; for dTTP: metabolite dTTP; for dihydroorotate: metabolite dihydroorotate; for orotate: metabolite orotate; for DLH: peptide DLH; for DLS/SDL/SID: peptide DLS/SDL/SID; for PD: peptide PD; for PEE: peptide PEE; for PVNF: peptide PVNF; for 3-phosphoglycerate: metabolite 3-phosphoglycerate; for ADP-D-glucose: metabolite ADP-D-glucose; for ATP: metabolite ATP; for CDP: metabolite CDP; for CDP / D-sedoheptulose-1/7-phosphate / GMP / Octoluse Bisphosphate / UDP / UMP / UTP / citrate/isocitrate / dGMP/AMP / fumarate / glucose-1/6-phosphate / glycerate / guanine / guanosine / inosine / pyruvate / sarcosine/alanine / succinate/methylmalonic acid / uridine / xanthosine: change in metabolite level after compound treatment; for D-sedoheptulose-1/7-phosphate: metabolite D-sedoheptulose-1/7-phosphate; for FAD: metabolite FAD; for GMP: metabolite GMP; for NAD+: metabolite NAD+; for NADP+: metabolite NADP+; for Octoluse Bisphosphate: metabolite Octoluse Bisphosphate; for Pyroglutamic acid: metabolite Pyroglutamic acid; for UDP-D-glucose: metabolite UDP-D-glucose; for UDP-D-glucuronate: metabolite UDP-D-glucuronate; for UDP-N-acetyl-glucosamine: metabolite UDP-N-acetyl-glucosamine; for UDP: metabolite UDP; for UMP: metabolite UMP; for UTP: metabolite UTP; for a-ketoglutarate: metabolite a-ketoglutarate; for citrate/isocitrate: metabolite citrate/isocitrate; for cytidine: metabolite cytidine; for dATP: metabolite dATP; for dGMP/AMP: metabolite dGMP/AMP; for fumarate: metabolite fumarate; for glucose-1/6-phosphate: metabolite glucose-1/6-phosphate; for glycerate: metabolite glycerate; for guanine: metabolite guanine; for guanosine: metabolite guanosine; for hypoxanthine: metabolite hypoxanthine; for indole: metabolite indole; for inosine: metabolite inosine; for 2_3-Diphosphoglyceric acid / 4-phosphopantothenate / 6-phospho-D-gluconate / FMN / IMP / Pyrophosphate / Sedoheptoluse bisphosphate / cyclic-AMP / glutathione disulfide / lactate / myo-inositol: metabolite level change after treatment; for nicotinate: metabolite nicotinate; for ornithine: metabolite ornithine; for phosphoenolpyruvate: metabolite phosphoenolpyruvate; for pyruvate: metabolite pyruvate; for ribose-phosphate: metabolite ribose-phosphate; for sarcosine/alanine: metabolite sarcosine/alanine; for sn-glycerol-3-phosphate: metabolite sn-glycerol-3-phosphate; for succinate/methylmalonic acid: metabolite succinate/methylmalonic acid; for uridine: metabolite uridine; for xanthosine: metabolite xanthosine

`CCn1c(CN2CCN(Cc3ccccc3)CC2)nc2cc(NC(=O)c3cccs3)ccc21` [MMV020439] was tested, and the pEC50 [1] was 6.29, the Acetyllysine [2] was 0.7202 and the N-acetyl-L-ornithine [2] was 1.173. The N-carbamoyl-L-aspartate [2] was 4.61, the NADPH [2] was 0.6182 and the dAMP [2] was -1.31. For the same molecule, the dCMP [2] was -0.04169, the dTDP [2] was -1.17 and the dTMP [2] was -0.7966. For the same molecule, the dTTP [2] was -1.312, the dihydroorotate [2] was 4.909 and the orotate [2] was 0.06984. For the same molecule, the DLH [2] was 0.527, the DLS/SDL/SID [2] was 0.4749 and the PD [2] was 0.8243. For the same molecule, the PEE [2] was 1.011, the PVNF [2] was 0.2931 and the 3-phosphoglycerate [2] was -0.2906. It also gave an ADP-D-glucose [2] of 0.1986, an ATP [2] of -0.1401 and a CDP [2] of -0.619. For the same molecule, the D-sedoheptulose-1/7-phosphate [2] was 0.1339, the FAD [2] was 0.2064 and the GMP [2] was -0.008752. For the same molecule, the “NAD+” value [2] was -0.02079, the “NADP+” value [2] was 0.1784 and the “Octoluse Bisphosphate” value [2] was -0.1148. The Pyroglutamic acid [2] was -0.1051, the UDP-D-glucose [2] was -0.06605 and the UDP-D-glucuronate [2] was -0.1248. For the same molecule, the UDP-N-acetyl-glucosamine [2] was -0.297, the UDP [2] was -1.2 and the UMP [2] was -1.107. The UTP [2] was -1.42, the a-ketoglutarate [2] was -0.8941 and the citrate/isocitrate [2] was -0.2089. For the same molecule, the cytidine [2] was 0.004614, the dATP [2] was 0.08773 and the dGMP/AMP [2] was -0.284. For the same molecule, the fumarate [2] was 0.6925, the glucose-1/6-phosphate [2] was -0.2278 and the glycerate [2] was -0.4348. It also gave a guanine [2] of 0.1895, a guanosine [2] of 0.2428 and a hypoxanthine [2] of -0.1751. For the same molecule, the indole [2] was -0.1227, the inosine [2] was -0.4694 and the 2_3-Diphosphoglyceric acid [2] was -0.2253. The 4-phosphopantothenate [2] was -0.909, the 6-phospho-D-gluconate [2] was -0.007867 and the FMN [2] was -0.349. For the same molecule, the IMP [2] was -0.2804, the Pyrophosphate [2] was -0.2048 and the Sedoheptoluse bisphosphate [2] was 0.08493. For the same molecule, the cyclic-AMP [2] was -0.08461, the glutathione disulfide [2] was -0.0242 and the lactate [2] was -0.4874. The myo-inositol [2] was -0.8159, the nicotinate [2] was -0.2742 and the ornithine [2] was -0.03081. For the same molecule, the phosphoenolpyruvate [2] was -0.3915, the pyruvate [2] was -0.2887 and the ribose-phosphate [2] was -0.1311. The sarcosine/alanine [2] was 1.094, the sn-glycerol-3-phosphate [2] was 0.2993 and the succinate/methylmalonic acid [2] was 0.5601. The uridine [2] was 0.2091 and the xanthosine [2] was -0.0525.
With `CC1CN(C(=O)c2sc3ccccc3c2Cl)CC(C)O1` (stereo not shown) [MMV020492] the pEC50 [1] was 7.59, the Acetyllysine [2] was -0.0147 and the N-acetyl-L-ornithine [2] was -0.05191. It also gave a N-carbamoyl-L-aspartate [2] of 0.1461, an NADPH [2] of 1.076 and a dAMP [2] of 0.05557. It also gave a dCMP [2] of 0.1257, a dTDP [2] of 0.2505 and a dTMP [2] of 0.3742. For the same molecule, the dTTP [2] was 0.08279, the dihydroorotate [2] was 0.2809 and the orotate [2] was 0.03682. The DLH [2] was 0.1005, the DLS/SDL/SID [2] was 0.08855 and the PD [2] was 0.1297. The PEE [2] was 0.04353, the PVNF [2] was 0.1047 and the 3-phosphoglycerate [2] was 0.09132. The ADP-D-glucose [2] was 0.03984, the ATP [2] was 0.0738 and the CDP [2] was 0.1835. It also gave a D-sedoheptulose-1/7-phosphate [2] of 0.08985, an FAD [2] of 0.03625 and a GMP [2] of 0.3386. For the same molecule, the “NAD+” value [2] was 0.04927, the “NADP+” value [2] was 0.004356 and the “Octoluse Bisphosphate” value [2] was 0.06954. It also gave a Pyroglutamic acid [2] of 0.3822, a UDP-D-glucose [2] of 0.04537 and a UDP-D-glucuronate [2] of -0.02953. For the same molecule, the UDP-N-acetyl-glucosamine [2] was 0.08846, the UDP [2] was 0.2013 and the UMP [2] was 0.2191. It also gave a UTP [2] of 0.01852, an a-ketoglutarate [2] of 0.02481 and a citrate/isocitrate [2] of -0.02888. The cytidine [2] was -0.05556, the dATP [2] was -0.009271 and the dGMP/AMP [2] was 0.09845. For the same molecule, the fumarate [2] was 0.08721, the glucose-1/6-phosphate [2] was -0.03526 and the glycerate [2] was 0.2426. For the same molecule, the guanine [2] was 0.0471, the guanosine [2] was 0.114 and the hypoxanthine [2] was -0.07881. The indole [2] was 0.1523, the inosine [2] was -0.03708 and the 2_3-Diphosphoglyceric acid [2] was 0.1949. The 4-phosphopantothenate [2] was 0.1246, the 6-phospho-D-gluconate [2] was 0.07439 and the FMN [2] was 0.2041. It also gave an IMP [2] of -0.02839, a Pyrophosphate [2] of 0.1402 and a Sedoheptoluse bisphosphate [2] of 0.05967. For the same molecule, the cyclic-AMP [2] was 0.07392, the glutathione disulfide [2] was 0.1287 and the lactate [2] was 0.06153. For the same molecule, the myo-inositol [2] was 0.04445, the nicotinate [2] was 0.03208 and the ornithine [2] was -0.1593. The phosphoenolpyruvate [2] was 0.09247, the pyruvate [2] was -0.02843 and the ribose-phosphate [2] was -0.3604. It also gave a sarcosine/alanine [2] of 0.3511, a sn-glycerol-3-phosphate [2] of 0.4063 and a succinate/methylmalonic acid [2] of 0.003908. The uridine [2] was 0.1407 and the xanthosine [2] was 0.3607.
